Read-outs that look alike come from different tables or passages of the source.
Legend:
Assay type in all cases: cell-based
[1] = test system: CCD966SK cells (human skin fibroblast); test: Alamar Blue cytotoxicity / anti-proliferation assay, CCD966SK; settings: triplicate, read-out: Anti-proliferation activities (IC50) CCD966SK
Procedure: (§1) The assay was implemented according to the published protocols. In brief, the Alamar Blue assay was performed for compounds 2–19 by treating them with P388, DLD-1, HuCC-T1, and CCD966SK cancer cells, which were commercially available from the American Type Culture Collection (ATCC). The test was performed in triplicate, and doxorubicin was used as a positive control.

[2] = test system: DLD-1 cells (human colorectal adenocarcinoma); test: Alamar Blue cytotoxicity / anti-proliferation assay, DLD-1; settings: triplicate, read-out: Anti-proliferation activities (IC50) DLD-1
Procedure: as §1

[3] = test system: P388 cells (mouse lymphoma); test: Alamar Blue cytotoxicity / anti-proliferation assay, P388; settings: triplicate, read-out: Anti-proliferation activities (IC50) P388
Procedure: as §1

[4] = test system: HuCCT-1 cells (human intrahepatic cholangiocarcinoma); test: Alamar Blue cytotoxicity / anti-proliferation assay, HuCCT-1; settings: triplicate, read-out: Anti-proliferation activities (IC50) HuCCT-1
Procedure: as §1

[5] = Homo sapiens, DLD-1, DLD-1 human colorectal adenocarcinoma
[6] = Mus musculus, P388, P388 mouse lymphoma
[7] = Homo sapiens, HuCCT-1, HuCCT-1 human intrahepatic cholangiocarcinoma
[8] = DLD-1 human colorectal adenocarcinoma
[9] = HuCCT-1 human intrahepatic cholangiocarcinoma

| Compound | IC50 ([1]; Homo sapiens, Skin fibroblast) | IC50 [2, 5] | IC50 [3, 6] | IC50 [4, 7] | IC50 [2, 8] | IC50 ([3]; P388 mouse lymphoma) | IC50 [4, 9] | IC50 [1] |
| --- | --- | --- | --- | --- | --- | --- | --- | --- |
| C/C1=C\[C@H](O)CC2=C[C@@H](OC2=O)[C@H](C(C)C)CC/C(C)=C/CC1 [Compound 8, sarcophytonolide F] | > 30 µM | > 30 µM | > 30 µM | > 30 µM |  |  |  |  |
| C=C1CC[C@H]2O[C@]2(C)CCC2=C(C)CO[C@H]2/C=C(\C)CC[C@@H]1OC(C)=O [Compound 4, sarcophytonoxide E] | > 30 µM | > 30 µM | > 30 µM | > 30 µM |  |  |  |  |
| CC1=CCCC2(C)OC2CCC(C)=CC=C(C(C)(C)O)CC1 (stereo not drawn) [Compound 7, 2-[(E,E,E)-7′,8′-epoxy-4′,8′,12′-trimethylcyclotetradeca-1′,3′,11′-trienyl]propan-2-ol] | > 30 µM | > 30 µM | > 30 µM | > 30 µM |  |  |  |  |
| COC(=O)/C1=C\C=C(\C(C)C)CCC2=CCC[C@](C)(OC2=O)C(=O)CC1 [Compound 14, ketoemblide] | > 30 µM | > 30 µM | > 30 µM | > 30 µM |  |  |  |  |
| COc1cccc2c1C(=O)c1c(O)c3c(c(O)c1C2=O)C[C@@](O)(C(=O)CO)C[C@@H]3O[C@H]1C[C@H](N)[C@H](O)[C@H](C)O1 [Doxorubicin, doxorubicin, reference compound] | 2.9 ± 0.4 µM | 4.1 ± 0.7 µM | 0.69 ± 0.01 µM | 1.9 ± 0.1 µM |  |  |  |  |
| CC(=O)OC1CC(C)=CCCC(C)=CC(=O)CC23C(=O)OC(C1C(C)C)C2CC(C)=C1CCC2=CCCC(C)(OC2=O)C(O)CCC(C)=CC13 (stereo not drawn) [Compound 16, glaucumolide A] | 21.3 ± 5.8 µM |  |  |  | > 30 µM | 16.7 ± 5.8 µM | 19.1 ± 6.4 µM |  |
| CC(C)C1(O)C=CC(C)(O)CCC(O)C2(C)CCC=C(CC1)C(=O)O2 (stereo not drawn) [Compound 2, Cinerenolide B] | > 30 µM | > 30 µM | > 30 µM | > 30 µM |  |  |  |  |
| CC1=C2CC[C@@]3(C)O[C@@H]3CC/C(C)=C/CC[C@@](C)(O)/C=C/2OC1=O [Compound 9, cherbonolide L] | > 30 µM | > 30 µM | > 30 µM | > 30 µM |  |  |  |  |
| CC(C)C1(O)C=CC(C)(O)CCC(O)C2(C)CCC=C(CC1)C(=O)O2 (stereo not drawn) [Compound 3, Cinerenolide C] |  |  |  |  | > 30 µM | > 30 µM | > 30 µM | > 30 µM |
| CC1=C2CC[C@@]3(C)O[C@@H]3CC/C(C)=C/CC/C(C)=C/[C@@H]2OC1=O [Compound 10, (+)-(2S)-isosarcophine] | > 30 µM | > 30 µM | > 30 µM | > 30 µM |  |  |  |  |
| CC(=O)OC1CC(C)=CCCC(C)=CC(=O)CC23C(=O)OC(C1C(C)C)C2CC(C)=C1CCC2=CCCC(C)(OC2=O)C(O)CCC(C)=CC13 (stereo not drawn) [Compound 18, bistrochelide A] |  |  |  |  | 9.9 ± 1 µM | 10.6 ± 1.9 µM | 2 ± 0.1 µM | 18.8 ± 6.9 µM |
| CC1=C2CC[C@@]3(C)O[C@@H]3CC[C@@](C)(OO)/C=C/C/C(C)=C/[C@@H]2OC1=O [Compound 5, sarcomililatin A] | > 30 µM | > 30 µM | 15.2 ± 3.2 µM | > 30 µM |  |  |  |  |
| CC1=C2CC[C@@]3(C)O[C@@H]3CC/C(C)=C/CC/C(C)=C/[C@H]2OC1=O [Compound 11, (–)-(2R)-isosarcophine] | > 30 µM | > 30 µM | > 30 µM | > 30 µM |  |  |  |  |
| CC(C)/C1=C/[C@@H](O)[C@]2(C)O[C@@H]2C[C@@H](O)[C@@]2(C)CCC=C(CC1)C(=O)O2 [Compound 13, sartrolide C] | > 30 µM | > 30 µM | > 30 µM | > 30 µM |  |  |  |  |
| isosarcophytonolide D [Compound 15] |  |  |  |  | > 30 µM | > 30 µM | > 30 µM | 27.6 ± 7.8 µM |
| CC(=O)O[C@H]1/C=C(\C)CC[C@H]2O[C@]2(C)CCC2=C(C)CO[C@H]2/C=C(\C)C1 [Compound 12, sarcophytonoxide A] | > 30 µM | > 30 µM | > 30 µM | > 30 µM |  |  |  |  |
| C=C1CC[C@H]2O[C@]2(C)CCC2=C(C)C(=O)O[C@H]2/C=C(\C)CC[C@H]1OO [Compound 6, sarcomililatin B] | > 30 µM | > 30 µM | 11.8 ± 4.6 µM | > 30 µM |  |  |  |  |
| CC(=O)OC1CC(C)=CCCC(C)=CC(=O)CC23C(=O)OC(C1C(C)C)C2CC(C)=C1CCC2=CCCC(C)(OC2=O)C(O)CCC(C)=CC13 (stereo not drawn) [Compound 17, glaucumolide B] |  |  |  |  | > 30 µM | 22.8 ± 9.7 µM | > 30 µM | 26.1 ± 10.3 µM |

— publication PMC8956058, “Cembranolides and Related Constituents from the Soft Coral Sarcophyton cinereum” (Molecules, 2022)
